Test results from patent US20100104580A1, “Altered Immunogenic Landscape in HIV-1 Envelope Proteins” (priority 2008, published 2010).

Tests used:
[1] = tested on: interaction between gp120 and four-domain soluble CD4 (4dCD4); details: cited from earlier work
[2] = tested on: interaction between gp120 and 17b; details: cited from earlier work
[3] = biological target: gp120 binding to both host cell receptors (CD4 and CCR5) (Human immunodeficiency virus type 1 group M subtype B, UniProt P35961); assay: Dual antagonism of gp120 binding to host cell receptors; parameters: species or system HIV-1; details: inhibiting gp120 binding to CD4 and CCR5
[4] = tested on: gp 120 from two other HIV-1 strains; assay: Affinity for gp120 of other strains; type: binding
Excerpt: HIV-1YU2gp120 was produced as described previously in Drosophila S2 cells (Biorn et al., 2004, Biochem. 43:1928-1938; Pancera et al., 2005, J Virol. 79:9954-9969). Cells were spun down and supernatant sterile filtered. Supernatant was purified over an F105-antibody column (NHS-activated Sepharose, Amersham; F 105 antibody coupled according to manufacturer's instructions). […] Supernatant from the hollow fiber bioreactor was purified with an SP-column and bound fractions were then run over a Q-column. Unbound material was concentrated and analysed by SDS-PAGE. The gp120 proteins from HIV-1 SF162 and HIV-192UG037-08 were used in previous inhibitor binding studies (Cocklin et al., 2007, J Virol. 81:3645-3648); HIV-1SF162 gp120 was obtained through NIH AIDS Research and Reference Reagent Program from DAIDS and NIAID, while HIV-192UG037-08 gp120 was a gift as reported in Cocklin et al. (2007, J Virol. 81:3645-3648). The following monoclonal antibodies were obtained through the NIH AIDS Research and Reference Reagent Program: 2G12 from Dr Hermann Katinger; F105 from Dr Marshall Posner and Dr Lisa Cavacini; b12 from Dr Dennis Burton and Carlos Barbas.

gp120YU2 = biological target: T1, gp120YU2 (Human immunodeficiency virus type 1 group M subtype B, UniProt P35961); type: binding, HIV-1; details: HNG-156 at the concentrations tested (0.6 μM elsewhere in the source)
T1 construct: for HIV-1 YU2 gp 120 envelope protein; made in house; host or cells: Drosophila S2 cells
Method: b12 binding to gp120YU2 was assayed by SPR using a Biacore 3000 instrument. […] Buffer (PBS+0.005% Tween-20) injection and control surface responses were subtracted from the injection of gp120 over b12 and binding sensorgrams were obtained.
Inhibition curves were generated from response at the end of association. b12 was injected at 100 ul/min with 2.5 min. association and 2 min. dissociation and binding curves were generated from responses at the 100th second of dissociation.
100 ng gp120YU2 was adsorbed to wells. […] Bound antibody was detected with species specific secondary antibody-HRP, and read with OPD assay at 450 nm.

[5] = tested on: M-tropic and T-tropic strains of HIV-1, SIV, FIV; details: cited from earlier work
HIV-1 BaL = details: recombinant CV-N; cited from earlier work
SHIV89.6P = details: cited from earlier work
[6] = female macaques; cited from earlier work

**Q.** Which “inhibition of the gp120-4dCD4 interaction” value [1] does the source give for `CC[C@H](C)[C@H](NC(=O)[C@@H](N)CCCNC(=N)N)C(=O)N[C@@H](CC(N)=O)C(=O)N[C@@H](CC(N)=O)C(=O)N[C@H](C(=O)N1CCC[C@H]1C(=O)N[C@@H](Cc1c[nH]c2ccccc12)C(=O)N[C@@H](CO)C(=O)N[C@@H](CCC(=O)O)C(=O)N[C@@H](C)C(=O)N[C@@H](CCSC)C(=O)N[C@@H](CCSC)C(=O)O)[C@@H](C)CC` [12p1] here?
**A.** found to inhibit

**Q.** What about the “inhibition of the gp120-17b interaction” value [2] of the same molecule?
**A.** found to inhibit

**Q.** Which dual antagonism function [3] does the source give for `CC[C@H](C)[C@H](NC(=O)[C@@H](N)CCCNC(=N)N)C(=O)N[C@@H](CC(N)=O)C(=O)N[C@@H](CC(N)=O)C(=O)N[C@H](C(=O)N1C[C@@H](n2cc(-c3cccc4ccccc34)nn2)C[C@H]1C(=O)N[C@@H](Cc1c[nH]c2ccccc12)C(=O)N[C@@H](CO)C(=O)N[C@@H](CCC(=O)O)C(=O)N[C@@H](C)C(=O)N[C@@H](CCSC)C(=O)N[C@@H](CCSC)C(N)=O)[C@@H](C)CC` [HNG-125] here?
**A.** dual antagonism function

**Q.** Which results are given for `CC[C@H](C)[C@H](NC(=O)[C@@H](N)CCCNC(=N)N)C(=O)N[C@@H](CC(N)=O)C(=O)N[C@@H](CC(N)=O)C(=O)N[C@H](C(=O)N1C[C@@H](n2cc([C]34[CH]5[CH]6[CH]7[CH]3[Fe]6754389%10[CH]4[CH]3[CH]8[CH]9[CH]4%10)nn2)C[C@H]1C(=O)N[C@@H](Cc1c[nH]c2ccccc12)C(=O)N[C@@H](CO)C(=O)N[C@@H](CCC(=O)O)C(=O)N[C@@H](C)C(=O)N[C@@H](CCSC)C(=O)N[C@@H](CCSC)C(N)=O)[C@@H](C)CC` (stereo partly drawn) [HNG-156, RINNIXWSEAMM, where residue 6 is (2s, 4s)-4-(4-ferrocenyl-1H-1, 2, 3-triazol-1-yl) pyrrolidine-2-carboxylic acid]?
**A.** affinity for gp 120 from two other HIV-1 strains [4]: similarly high affinity; dual antagonism function [3]: dual antagonism function; mAb F105 binding inhibition (gp120YU2): inhibited to near completion

B1: CV-N: 11 kD protein originally isolated from the cyanobacteria Nostoc ellipsosporum (protein)
chain: LGKFSQTCYNSAIQGSVLTSTCERTNGGYNTSSIDLNSVIENVDGSLKWQPSNFIETCRNTQLAGSSELAAECKTRAQQFVSTKINLDDHIANIDGTLKYE
**Q.** With B1 as the molecule, how does the “inactivation of virus strains” value [5] read?
**A.** inactivates a broad range of M-tropic and T-tropic strains

**Q.** What about the “cytotoxic effects in ectocervical explants” value (HIV-1 BaL) of the same molecule?
**A.** without cytotoxic effects

**Q.** What about the “infection of human ectocervical explants” value (HIV-1 BaL) of the same molecule?
**A.** blocks HIV-1 BaL infection

**Q.** What about the “protection against virus challenge” value (SHIV89.6P; gel formulations applied rectally, male macaques) of the same molecule?
**A.** protected against challenge

**Q.** What about the clinically adverse effects (SHIV89.6P; rectal and vaginal macaque in vivo assays) of the same molecule?
**A.** no clinically adverse effects

**Q.** And the “in vivo efficacy, vaginal challenge” value [6]?
**A.** In vivo efficacy has also be shown
